Tests used:
[1] = target: T1, Sodium channel protein type 9 subunit alpha (Homo sapiens, UniProt Q15858); assay: Blockade of Nav1.7 by electrophysiological patch clamp assay
[2] = target: T1, Sodium channel protein type 9 subunit alpha; assay: Blockade of Nav1.7 by FLIPR TETRA sodium dye assay in presence of KCl salt

T1 sequence (Q15858 whole entry): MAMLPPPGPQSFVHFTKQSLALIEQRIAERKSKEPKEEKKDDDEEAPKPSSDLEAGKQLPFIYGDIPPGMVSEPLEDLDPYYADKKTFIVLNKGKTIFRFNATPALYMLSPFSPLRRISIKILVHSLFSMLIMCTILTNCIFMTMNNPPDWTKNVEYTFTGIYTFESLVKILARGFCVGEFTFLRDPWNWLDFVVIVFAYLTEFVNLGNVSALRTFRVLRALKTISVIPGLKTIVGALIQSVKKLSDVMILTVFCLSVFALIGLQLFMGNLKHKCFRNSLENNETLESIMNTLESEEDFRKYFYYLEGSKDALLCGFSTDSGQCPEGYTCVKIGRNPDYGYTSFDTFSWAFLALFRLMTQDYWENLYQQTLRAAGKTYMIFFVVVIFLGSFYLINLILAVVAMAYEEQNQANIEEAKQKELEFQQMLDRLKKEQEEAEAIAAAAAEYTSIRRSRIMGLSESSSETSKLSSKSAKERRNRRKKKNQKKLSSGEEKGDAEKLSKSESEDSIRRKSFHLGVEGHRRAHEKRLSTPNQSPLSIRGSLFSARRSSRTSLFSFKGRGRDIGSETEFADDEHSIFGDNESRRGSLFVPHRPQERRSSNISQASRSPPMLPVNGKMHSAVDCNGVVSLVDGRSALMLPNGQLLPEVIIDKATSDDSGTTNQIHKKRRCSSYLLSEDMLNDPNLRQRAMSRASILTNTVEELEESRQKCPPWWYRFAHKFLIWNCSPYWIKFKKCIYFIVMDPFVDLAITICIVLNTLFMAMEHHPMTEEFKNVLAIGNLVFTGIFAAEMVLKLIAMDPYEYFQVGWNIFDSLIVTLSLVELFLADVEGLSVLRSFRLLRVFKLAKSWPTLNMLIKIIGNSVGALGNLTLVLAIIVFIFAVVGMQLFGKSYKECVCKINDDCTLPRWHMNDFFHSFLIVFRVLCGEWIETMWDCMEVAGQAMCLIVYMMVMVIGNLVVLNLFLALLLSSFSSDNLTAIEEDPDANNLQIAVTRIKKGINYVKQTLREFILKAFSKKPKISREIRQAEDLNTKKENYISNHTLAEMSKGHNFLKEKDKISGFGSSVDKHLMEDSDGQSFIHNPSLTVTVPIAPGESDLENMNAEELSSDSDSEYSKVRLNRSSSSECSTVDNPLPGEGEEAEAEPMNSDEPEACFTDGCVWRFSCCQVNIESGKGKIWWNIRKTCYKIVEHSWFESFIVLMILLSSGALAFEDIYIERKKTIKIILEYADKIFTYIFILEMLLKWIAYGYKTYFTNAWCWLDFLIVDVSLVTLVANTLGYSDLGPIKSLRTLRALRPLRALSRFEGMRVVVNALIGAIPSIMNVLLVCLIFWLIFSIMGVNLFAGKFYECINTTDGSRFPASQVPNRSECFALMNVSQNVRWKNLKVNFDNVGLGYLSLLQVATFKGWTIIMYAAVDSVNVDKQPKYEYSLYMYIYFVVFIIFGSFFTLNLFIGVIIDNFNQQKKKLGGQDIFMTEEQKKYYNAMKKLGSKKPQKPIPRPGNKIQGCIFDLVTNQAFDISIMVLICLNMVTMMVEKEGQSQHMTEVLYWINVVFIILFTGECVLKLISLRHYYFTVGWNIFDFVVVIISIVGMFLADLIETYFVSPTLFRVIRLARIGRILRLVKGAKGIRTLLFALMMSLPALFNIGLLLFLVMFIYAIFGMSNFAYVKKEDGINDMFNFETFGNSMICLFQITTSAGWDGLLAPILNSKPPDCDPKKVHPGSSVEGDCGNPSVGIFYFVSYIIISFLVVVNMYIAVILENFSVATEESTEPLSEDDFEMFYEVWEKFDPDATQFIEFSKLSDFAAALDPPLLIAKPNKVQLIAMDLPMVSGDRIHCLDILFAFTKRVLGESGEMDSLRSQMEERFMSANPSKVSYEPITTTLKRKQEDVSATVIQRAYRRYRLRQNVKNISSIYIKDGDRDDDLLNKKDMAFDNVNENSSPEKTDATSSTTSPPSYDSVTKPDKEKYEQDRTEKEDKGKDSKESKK

Ki [1]: 195 nM
IC50 [2]: 140 nM
SMILES: O=C(N[C@@H](CO)C(=O)Nc1cccc(-c2ccc(Oc3ccc(F)cc3)cc2)n1)c1ccccn1
